Assay results from patent US20240110202A1, “Advanced Cell-Permeable Peptide Carriers” (MUSC FOUNDATION FOR RESEARCH DEVELOPMENT, priority 2020, published 2024).
Entries after “also recorded” stand apart in the source; their conditions may differ.

How the values were obtained:
CIP2A mRNA [1] = experiment: Dual peptide siRNA delivery system with GE11R9, CIP2A knockdown; assay type: cell-based, human; conditions: CAL 27 cells
siCIP2A [2] = experiment: siRNA release assay (heparin competition); conditions: 50:1 complexes; for siRNA release compared to 599: 0-10 μg heparin, 30 minutes at RT
Description: Afterwards complexes were incubated with either 0, 0.1, 0.5, 1.0, 2.0, 5.0 or 10 μg heparin (Millipore Sigma, St. Louis, MO) for 30 minutes at RT. The samples were then electrophoresed on a 4% agarose gel and resulting siCIP2A bands were imaged and quantified, as described above.

[3] = Physicochemical measurements (Zetasizer) of peptide-siCIP2A complexes; conditions: complex with siCIP2A at 50:1 Peptide:siRNA molar (12.5 N/P) ratio in water; for Particle Size: mean hydrodynamic size, dynamic light scattering, ± SD; for Particle Size / Zeta Potential: three experiments; for Zeta Potential: mean ± SD
Serum protection assay = assay type: in vitro ADME; conditions: siCIP2A, 50:1, 50% human serum, 1 hour at 37° C.
Description: Afterwards, complexes were either treated or untreated with 50% human serum (final concentration; VWR, Radnor, PA) for 1 hour at 37° C., followed by denaturation with 4% SDS. Next, the samples were electrophoresed on a 4% agarose gel and resulting siCIP2A bands were imaged and quantified, as described above.

CAL 27 cells = experiment: Quantitative siRNA cell uptake assay; assay type: cell-based, human; conditions: DY547-siCIP2A, 2 hours post-treatment; for siRNA delivery into cells (internalization) compared to 599: 50:1 Peptide:siRNA molar (12.5 N/P) ratio
Description: CAL 27 cells, grown to a confluency of 60% on a 24-well plate, were rinsed three times with Opti-MEM I Reduced Serum Media (Opti-MEM; Thermo Fisher Scientific). […] After complexation, the total volume was brought to 600 μL with Opti-MEM, after which the cells were incubated with 500 μL of peptide-siCIP2A complexes for 2 hours at 37° C. with 5% CO2. As an additional control, the cells were also transfected with 50 pmol of DY547-siCIP2A using Lipofectamine® 3000 (Thermo Fisher Scientific), according to the manufacturer's instructions. After treatment, the cells were rinsed three times with PBS, before being trypsinized for 10 minutes at 37° C., followed by centrifugation for 5 minutes at 1,000×g at 4° C. The cells were then washed with ice cold phosphate-buffered saline (PBS) and centrifuged again for 5 minutes at 1,000×g at 4° C. Next, the cells were lysed in 250 μl ice cold 0.1 M NaOH. The cell lysates were centrifuged at 4° C. for 5 minutes at 10,000×g to remove cell debris. Afterwards, 100 μL of each sample was transferred to a black 96-well plate to measure fluorescence at 530/590 nm using a BioTek (Winooski, VT) Synergy HT plate reader. Fluorescence measurements were converted to the amount of internalized siRNAs using a standard curve that was generated per experiment using known concentrations of DY547-siCIP2A ranging from 0-100 fmol/μl. Subsequently, the amount of internalized siRNA was normalized to the amount of protein, which was quantitated using the Pierce BCA Protein Assay Kit (Thermo Fisher Scientific).

CIP2A mRNA [4] = experiment: CIP2A silencing in cells, real-time PCR; assay type: cell-based, human; conditions: CAL 27 cells, 50:1, 48 hours
Description: CAL 27 cells, grown to a confluency of 60% on 24-well plates, were rinsed three times with Opti-MEM. […] Afterwards, the complexes were added to the cells at a siRNA concentration of 125 nM and incubated for 4 hours at 37° C. with 5% CO2, prior to adjusting the siRNA and FBS concentrations to 100 nM and 10%, respectively, with the addition of 50% FBS/Opti-MEM media. 48 hours post-treatment, the total RNA or protein was harvested for subsequent real-time PCR and Western blot analyses.
Total RNA was harvested using the RNeasy Mini Kit (Qiagen, Germantown, MD). RNA was then reverse transcribed using the High-Capacity cDNA Reverse Transcription Kit (Thermo Fisher Scientific) in a Bio-Rad (Hercules, CA) T100 Thermal Cycler. Next, quantitative real-time PCR was performed in an Applied Biosystems™ StepOnePlus™ Real-Time PCR machine (Thermo Fisher Scientific) using the TaqMan™ Fast Advanced Master Mix (Thermo Fisher Scientific) and predesigned TaqMan™ Gene Expression Assays (Thermo Fisher Scientific) for CIP2A (Hs00405413_m1) and 18S (4319413E), according to the manufacturer's instructions.

siCIP2A [5] = experiment: siRNA binding assay (gel-shift); conditions: 10:1 Peptide:siRNA molar ratio
From the text: Afterwards, the samples were electrophoresed on a 4% agarose gel and stained with ethidium bromide. Free siCIP2A was used as a normalizing control. An Ultra-Low Range DNA Ladder (Thermo Fisher Scientific, Waltham, MA) was used as a MW marker. Resulting siCIP2A bands were imaged and quantified using a G:Box Chemi XX6 and GeneSys image capture software (Syngene, Frederick, MD), respectively.

RNase A = experiment: RNase protection assay; assay type: biochemical; conditions: siCIP2A, 50:1, 1 hour at 37° C.
Description: Afterwards, complexes were either treated or untreated with 0.18 μg of RNase A (Thermo Fisher Scientific) for 1 hour at 37° C., followed by denaturation with 4% SDS. Next, the samples were electrophoresed on a 4% agarose gel and resulting siCIP2A bands were imaged and quantified, as described above.

RNase A, sequence (P61823 27-150): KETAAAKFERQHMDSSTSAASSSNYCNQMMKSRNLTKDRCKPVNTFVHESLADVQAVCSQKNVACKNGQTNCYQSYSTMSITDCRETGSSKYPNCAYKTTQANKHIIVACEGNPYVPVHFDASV

Row | Substance | CIP2A knockdown with GE11R9 as compared to scrambled control peptide GE11SCR9 (CIP2A mRNA [1]) | siRNA release compared to 599 (siCIP2A [2]) | PDI (Polydispersity index) [3] | Particle Size [3] [nm] | Zeta Potential [3] [mV] | ability to protect siRNAs in the presence of serum, compared to 599 (Serum protection assay) | siRNA delivery into cells compared to 599 (CAL 27 cells; 30:1 Peptide:siRNA molar (7.5 N/P) ratio) | siRNA delivery into cells (internalization) compared to 599 (CAL 27 cells) | gene silencing in comparison to 599 / among the peptide variants (CIP2A mRNA [4]) | binding improvement relative to 599 (siCIP2A [5]) [%] | ability to protect siRNAs in the presence of RNase A, compared to 599 (RNase A) | complexed siRNAs (maximally) released (siCIP2A [2]; increasing heparin, maximal at 4-fold excess and higher (≥2 μg; ≥120 pmol) of heparin) [%]
1 | YHWYGYTPQNVIGGGGRRRRRRRRRK [GE11R9, EGFR-targeting derivative of GE11 peptide with a stretch of densely packed cationic amino acids] | shown to be specific | – | – | – | – | – | – | – | – | – | – | –
2 | GlfeaieGfienGweGmidGwyGGGGRRRRRRRRRK [INF7D] | – | No statistical differences in siRNA release | 0.296 | 190.4 ± 94.6 | 28.2 ± 10.2 | greatest instability in serum | dramatic and significant reduction in siRNA delivery into cells | significantly decreased levels of siRNA cell internalization; also recorded: adversely affect the intracellular delivery of siRNAs; also recorded: on average lower siRNA uptake abilities in comparison to 599; also recorded: poorest siRNA cell uptake | weakest gene silencing effect among the peptide variants | ~20 | – | –
3 | GlfeaieGfienGweGmidGwyGGGGrrrrrrrrrk [All-D] | – | poor siRNA release | 0.366 | 185.9 ± 72.0 | 28.3 ± 7.7 | did not differ from 599 | – | on average lower siRNA uptake abilities in comparison to 599 | – | – | did not differ from 599 | ~70
